The test system of data set [1] is KLN mouse squamous cell carcinoma cells. In words: Cell proliferation SRB assay, KLN. Format: cell-based. The procedure: (§1) Reduced availability of the ternary complex causes inhibition of translation initiation and thereby of cell proliferation. […] The effects of N,N′-diarylureas on the proliferation KLN mouse squamous cell carcinoma, CRL-2351 human breast, CRL-2813 human melanoma, A549 human lung and PC-3 human prostate cancer cell lines were tested.
(§2) Cell Growth Assay: Cell Growth was Measured by the SRB Assay.
A general note: The SRB assay estimates cell density from bound dye.

In data set [2] the test system is CRL-2813 human melanoma cells. Nature of the data set: Cell proliferation SRB assay, CRL-2813. The class given is cell-based. How it is done:
Reduced availability of the ternary complex causes inhibition of translation initiation and thereby of cell proliferation. […] The effects of N,N′-diarylureas on the proliferation KLN mouse squamous cell carcinoma, CRL-2351 human breast, CRL-2813 human melanoma, A549 human lung and PC-3 human prostate cancer cell lines were tested. […]
as §2

In data set [3] the test system is CRL-2351 human breast cancer cells. Nature of the data set: Cell proliferation SRB assay, CRL-2351. The settings on record: Homo sapiens. The class given is cell-based. The procedure: as §1, §2
In data set [4] the test system is eIF2.GTP.Met-tRNAi ternary complex. In words: ATF-4 assay (firefly/renilla luciferase ratio) in CRL-2351 cell line. Format: cell-based, human. The settings on record: for maximal fold induction / EC (activity threshold of 5): Homo sapiens; for maximal fold induction: read-out: ATF-4 Amax: maximal activity, ratio of firefly over renilla luciferase expression; for EC (activity threshold of 5): read-out: ATF-4 C[5] (μM): concentration corresponding to an activity threshold of 5; for Cmax: read-out: ATF-4 Cmax (μM): concentration corresponding to the maximal activity. The source says: For example, reducing amount of the ternary complex increases translation of ATF-4, which results in elevated expression of CHOP mRNA and protein. Therefore, expression of endogenous CHOP mRNA and CHOP protein in KLN-tTA/pBISA-DL^(ATF-4) cells were utilized as secondary assays to validate N,N′-diarylurea compounds as modifiers of the eIF2.GTP.Met-tRNAi ternary complex. […] To rule out the possibility that the activity of N,N′-diarylurea compounds was confined to a single cell type, the effects of these compounds on the ternary complex assay and the expression of CHOP mRNA was assayed in CRL-2351, PC-3, CRL-2813 human breast, prostate, and melanoma cancer cell lines respectively. For the reporter gene assay, the three human cell lines were co-transfected with tTA expression vector and the pBISA-DL^(ATF-4) dual luciferase expression vector shown in FIG. 6. […] The expression of CHOP mRNA was assayed by real time PCR in the same cell lines treated with 5 or 20 μM of each compound.
Stable and transient transfection: Cells were seeded at the density of 10^5 in 60-mm (stable transfection) or 10^4 cells per well of 96-well plate (transient transfection) plates and transfected one day later using the Qiagen Transfectamine transfection kit. For selection of stable cell lines, transfected cells were transferred to 100-mm plates and selected with appropriate antibiotics.
Dual luciferase assay: Cells or minced tumors expressing firefly and renilla luciferases were lysed and the extracts assayed with a glow type dual luciferase assay kit, per manufacturer's instruction (Promega Inc., Madison, Wis.).

For data set [5], the system named is A549 human lung cancer cells. In words: Cell proliferation SRB assay, A549. Format: cell-based. The settings on record: read-out: IC50 (μM), concentration that inhibits cell proliferation by 50%. The procedure:
as §1, §2

Where [6] appears, read: KLN cells, read-out: IC50 (μM) by SRB assay, KLN.
The mark [7] stands for this setting: CRL2813, 2813 cells, read-out: IC50 (μM) by SRB assay, 2813.
The mark [8] stands for this setting: 2351 cells, read-out: IC50 (μM) by SRB assay, 2351.

Each structure is given as a SMILES string. Where two headings read alike, the source gives them in different places. Some results are limits rather than exact numbers.

As for `COc1cc(NC(=O)Nc2ccc(Cl)c(Cl)c2)ccc1C` [Compound 7], the IC50 is above 20 µM in data set [1] (setting [6]), above 20 µM in data set [2] (setting [7]) and 11 µM in data set [3] (setting [8]).
As for `COc1cc(NC(=O)Nc2ccc(Cl)c(C(F)(F)F)c2)ccc1C` [Compound 8], in data set [4], the maximal fold induction came out at 8, the EC (activity threshold of 5) stood at 3 µM and the Cmax was 10 µM. Further, the IC50 in data set [1] (setting [6]) was 17.2 µM. For the same compound, the IC50 in data set [2] (setting [7]) worked out at 3 µM. In addition, in data set [3] (setting [8]), the IC50 amounted to 2.5 µM.
For the compound `Cc1ccc(NC(=O)Nc2ccc(Cl)c(Cl)c2)cc1OCCN1CCOCC1` [Compound 15, 3-(3,4-dichlorophenyl)-1-{4-methyl-3-[2-(morpholin-4-yl)ethoxy]phenyl}urea], in data set [4], the maximal fold induction worked out at 5.5, the EC (activity threshold of 5) was found to be 9 µM and the Cmax is 10 µM. In addition, the IC50 in data set [1] (setting [6]) was determined as 20 µM. For the same compound, the IC50 in data set [3] (setting [8]) was found to be 2.4 µM.
With `Cc1ccc(NC(=O)Nc2ccc(Cl)c(C(F)(F)F)c2)cc1OCCN1CCOCC1` [Compound 16, 3-[4-chloro-3-(trifluoromethyl)phenyl]-1-{4-methyl-3-[2-(morpholin-4-yl)ethoxy]phenyl}urea], the maximal fold induction in data set [4] worked out at 7. Moreover, the EC (activity threshold of 5) in data set [4] came to 7 µM. In data set [4], the Cmax amounted to 10 µM. Moreover, the values for the IC50 in data set [1] (setting [6]), in data set [2] (setting [7]) and in data set [3] (setting [8]) were above 20 µM, 0.9 µM and 2.7 µM, respectively.
Consider `O=C(Nc1ccc(Cl)c(C(F)(F)F)c1)Nc1ccc(Cl)c(C(F)(F)F)c1` [Compound 2, 1,3-bis[4-chloro-3-(trifluoromethyl)phenyl]urea], for which, in data set [4], the maximal fold induction amounted to 11, the EC (activity threshold of 5) is 1.5 µM and the Cmax came to 2.5 µM. For the same compound, the IC50 in data set [2] (setting [7]) is 1.7 µM. In addition, in data set [3] (setting [8]), the IC50 is 2.8 µM.
For `Cc1ccc(NC(=O)Nc2ccc(Cl)c(C(F)(F)F)c2)cc1OCCN(C)C` [Compound 12, 3-[4-chloro-3-(trifluoromethyl)phenyl]-1-{3-[2-(dimethylamino)ethoxy]-4-methylphenyl}urea], in data set [4], the maximal fold induction was determined as 7, the EC (activity threshold of 5) was found to be 7 µM and the Cmax is 10 µM. For the same compound, the IC50 in data set [1] (setting [6]) was 12.3 µM. Besides, the IC50 in data set [2] (setting [7]) was found to be 2.8 µM. The IC50 in data set [3] (setting [8]) was determined as 2.5 µM.
With `Cc1ccc(NC(=O)Nc2cc(C(F)(F)F)cc(C(F)(F)F)c2)cc1OCCN1CCOCC1` [Compound 17, 3-[3,5-bis(trifluoromethyl)phenyl]-1-{4-methyl-3-[2-(morpholin-4-yl)ethoxy]phenyl}urea], in data set [4], the maximal fold induction was 9, the EC (activity threshold of 5) was 3 µM and the Cmax came out at 10 µM. Besides, the IC50 in data set [1] (setting [6]) was determined as 18.6 µM. Moreover, in data set [2] (setting [7]), the IC50 is 0.8 µM. In addition, the IC50 in data set [3] (setting [8]) stood at 2.3 µM.
With `O=C(Nc1cc(C(F)(F)F)cc(C(F)(F)F)c1)Nc1cc(C(F)(F)F)cc(C(F)(F)F)c1` [Compound 3, 1,3-bis[3,5-bis(trifluoromethyl)phenyl]urea], in data set [4], the maximal fold induction came out at 11, the EC (activity threshold of 5) is 1.5 µM and the Cmax came to 2.5 µM. Further, in data set [1] (setting [6]), the IC50 stood at 3.9 µM. The IC50 in data set [2] (setting [7]) is 0.1 µM. For the same compound, the IC50 in data set [3] (setting [8]) stood at 0.6 µM.
As for `Cc1ccc(NC(=O)Nc2cc(C(F)(F)F)cc(C(F)(F)F)c2)cc1O` [Compound 6, 3-[3,5-bis(trifluoromethyl)phenyl]-1-(3-hydroxy-4-methylphenyl)urea], in data set [4], the maximal fold induction was determined as 13, the EC (activity threshold of 5) amounted to 3 µM and the Cmax was 5 µM. Moreover, the IC50 in data set [1] (setting [6]) came to 13.5 µM. Moreover, the IC50 in data set [2] (setting [7]) stood at 1 µM. Besides, the IC50 in data set [3] (setting [8]) turned out to be 3.2 µM.
Take `COc1cc(NC(=O)Nc2cc(C(F)(F)F)cc(C(F)(F)F)c2)ccc1C` [Compound 9]: in data set [4], the maximal fold induction came to 12, the EC (activity threshold of 5) is below 2.5 µM and the Cmax was 20 µM. Besides, in data set [1] (setting [6]), the IC50 was determined as 20 µM. For the same compound, the IC50 in data set [2] (setting [7]) was determined as 0.7 µM. The IC50 in data set [3] (setting [8]) is 2.2 µM.
With `Cc1ccc(NC(=O)Nc2ccc(Cl)c(Cl)c2)cc1O` [Compound 4, 3-(3,4-dichlorophenyl)-1-(3-hydroxy-4-methylphenyl)urea], the maximal fold induction in data set [4] was 13. For the same compound, the EC (activity threshold of 5) in data set [4] came to 11 µM. In data set [4], the Cmax was 20 µM. Further, the IC50 in data set [1] (setting [6]) was above 20 µM; in data set [2] (setting [7]), 1.8 µM; in data set [3] (setting [8]), 9 µM.
`Cc1ccc(NC(=O)Nc2ccc(Cl)c(Cl)c2)cc1OCCN1CCNCC1` [Compound 23, 4-[2-(5-{[(3,4-dichlorophenyl)carbamoyl]amino}-2-methylphenoxy)ethyl]piperazine-1,4-diium dichloride]: in data set [4], the maximal fold induction was found to be 7.5, the EC (activity threshold of 5) is 7 µM and the Cmax stood at 10 µM. Also, the IC50 in data set [1] (setting [6]) is above 20 µM. Moreover, the IC50 in data set [2] (setting [7]) amounted to 5.1 µM. Moreover, the IC50 in data set [3] (setting [8]) was determined as 4.5 µM.
Take `O=C(Nc1ccc(Cl)c(Cl)c1)Nc1ccc(Cl)c(Cl)c1` [Compound 1, 1,3-bis(3,4-dichlorophenyl)urea]: in data set [4], the maximal fold induction was 11, the EC (activity threshold of 5) was found to be 2 µM and the Cmax was determined as 5 µM. Besides, the IC50 in data set [1] (setting [6]) is above 20 µM. The IC50 in data set [2] (setting [7]) was 0.8 µM. Further, in data set [3] (setting [8]), the IC50 came to 2.6 µM.
With `O=C(Nc1ccc(Cl)c(Cl)c1)Nc1cc([N+](=O)[O-])ccc1Cl` [Compound 1527], the IC50 in data set [1] (KLN, read-out: IC50 (μM), concentration that inhibits cell proliferation by 50%) is above 20 µM; in data set [2] (CRL2813, CRL-2813, read-out: IC50 (μM), concentration that inhibits cell proliferation by 50%), 20 µM; in data set [3] (CRL-2351, read-out: IC50 (μM), concentration that inhibits cell proliferation by 50%), 9.5 µM; in data set [5], above 20 µM.
Regarding `Cc1ccc(NC(=O)Nc2ccc(Cl)c(C(F)(F)F)c2)cc1O` [Compound 5, 3-[4-chloro-3-(trifluoromethyl)phenyl]-1-(3-hydroxy-4-methylphenyl)urea], in data set [4], the maximal fold induction was found to be 11, the EC (activity threshold of 5) was determined as 6 µM and the Cmax stood at 10 µM. For the same compound, the IC50 in data set [1] (setting [6]) was 20 µM. The IC50 in data set [2] (setting [7]) is 1.6 µM. For the same compound, the IC50 in data set [3] (setting [8]) turned out to be 9.3 µM.
Turning to `O=C(Nc1ccc(Cl)c(Cl)c1)Nc1ncccc1O` [Compound 26], in data set [4], the maximal fold induction amounted to 12, the EC (activity threshold of 5) came to 13 µM and the Cmax amounted to 40 µM. The IC50 in data set [1] (setting [6]) was above 20 µM. Also, the IC50 in data set [2] (setting [7]) is 1.8 µM. For the same compound, the IC50 in data set [3] (setting [8]) was determined as 2 µM.
As for `O=C(Nc1ccc(Cl)c(C(F)(F)F)c1)Nc1ncccc1O` [Compound 27], the maximal fold induction in data set [4] came out at 6.5. For the same compound, the EC (activity threshold of 5) in data set [4] worked out at 10 µM. The Cmax in data set [4] is 40 µM. In addition, the IC50 in data set [1] (setting [6]) was found to be 12.5 µM; in data set [2] (setting [7]), 0.8 µM; in data set [3] (setting [8]), 1.2 µM.
Turning to `Cc1ccc(NC(=O)Nc2ccc(Cl)c(Cl)c2)cc1OCCN(C)C` [Compound 11, 3-(3,4-dichlorophenyl)-1-{3-[2-(dimethylamino)ethoxy]-4-methylphenyl}urea], the maximal fold induction in data set [4] is 7.5. Also, the EC (activity threshold of 5) in data set [4] stood at 8 µM. The Cmax in data set [4] came out at 20 µM. Besides, the IC50 in data set [1] (setting [6]) turned out to be 13.5 µM; in data set [2] (setting [7]) it was 5.3 µM; in data set [3] (setting [8]) it was 5.8 µM.
With `Cc1ccc(NC(=O)Nc2cc(C(F)(F)F)cc(C(F)(F)F)c2)cc1OCCN(C)C` [Compound 13, 3-[3,5-bis(trifluoromethyl)phenyl]-1-{3-[2-(dimethylamino)ethoxy]-4-methylphenyl}urea], in data set [4], the maximal fold induction worked out at 12.5, the EC (activity threshold of 5) amounted to 5 µM and the Cmax worked out at 10 µM. The IC50 in data set [1] (setting [6]) was 12.4 µM. Also, the IC50 in data set [3] (setting [8]) turned out to be 2.9 µM.
Consider `Cc1ccc(NC(=O)Nc2cc(C(F)(F)F)cc(C(F)(F)F)c2)cc1OCCN1CCNCC1` [Compound 25, 4-{2-[5-({[3,5-bis(trifluoromethyl)phenyl]carbamoyl}amino)-2-methylphenoxy]ethyl}piperazine-1,4-diium dichloride], for which, in data set [4], the maximal fold induction was 10, the EC (activity threshold of 5) stood at 6 µM and the Cmax came out at 10 µM. In addition, in data set [2] (setting [7]), the IC50 stood at 3.1 µM. In addition, in data set [3] (setting [8]), the IC50 stood at 5.2 µM.

The values above are taken from US9421211B2, “N,N′-diarylurea compounds and N,N′-diarylthiourea compounds as inhibitors of translation initiation” (President and Fellows of Harvard College, priority 2009, dated 2016).
